Patent US20170000749A1, “Methods for Treating Cognitive Disorders Using Inhibitors of Histone Deacetylase” (Forum Pharmaceuticals, Inc., priority 2008, published 2017)

Test system: Drosophila Huntington's Disease model flies
Test: In Vivo Drosophila Fly Assay for Treatment of Huntington's Disease (automated climbing behavioral assay)
Parameters: species or system Drosophila melanogaster
Settings: for Speed 1 to 7 (concentration) 30 uM / Speed 1 to 7 (concentration) 100 uM / Speed 1 to 7 (concentration) 300 uM: effect size of early speed (days 1-7) vs DMSO-carrier control; for Speed 8 to 10 (concentration) 30 uM / Speed 8 to 10 (concentration) 100 uM / Speed 8 to 10 (concentration) 300 uM: effect size of late speed (days 8-10) vs DMSO-carrier control
From the text: The Drosophila Huntington's Disease assay used to screen compounds of the present disclosure followed that of WO 2007/002497, which is hereby incorporated by reference in its entirety.
Briefly, parental (model and driver) lines are maintained in sufficient quantities to provide virgins and males for assay crosses as well as perpetuating the lines. Disease model flies are maintained with the disease genes “silent”, functionally linked to a UAS enhancer element. The “driver” lines contain a GAL4 element under the control of a tissue-specific promoter. These are crossed together to generate the assay flies which have tissue-specific (i.e. CNS) expression of the disease gene(s).
Weekly assay crosses are set up with sufficient virgins and males to generate enough assay embryos for sorting. Approximately 50,000 males and 75,000 virgins are crossed in population cages. Embryos are collected for an eight hour window two days later. The embryos are then sorted onto 16 mm assay vials containing regular fly media and allowed to develop. Flies containing both the GAL4 driver element and the disease gene(s) are detected by the presence of GFP, a fluorescing protein. Approximately 10 assay flies eclose per vial, the optimal number for the behavioral assay. Once the flies eclose, they are transferred onto assay vials containing liquid Drosophila food. Similarly, control crosses are set up with virgins of the driver and males from a non-disease UAS line. Throughout fly production and the assay days, all flies are maintained at constant temperature and humidity, with preset light cycle, optimized for the particular lines and crosses.
Quality control (QC) for the parental lines is carried out weekly by collecting a sample of random male flies from each line. Single-fly PCR is carried out to ascertain the presence of the GAL4 or UAS element. If greater than 5% of the individuals lack the appropriate element, the assay cross is aborted. A second form of QC is also carried out to ensure that the GAL4 element is able to drive expression of a transgene. A sample of individual “driver” virgins is crossed to UAS-GFP males. Their progeny are visually checked for GFP expression in the appropriate tissues. Lack of GFP in greater than 4% of the crosses results in the assay being aborted.
Test compounds are weighed out and dissolved in DMSO at stock concentrations 100× what is desired in the assay and arrayed into 96-well master plates, including wells for DMSO-only controls and the positive control(s). A single well is reserved for a colored dye used to ensure proper orientation of compounds during drug dispensing and fly transfer. Replicate daughter plates for each day of the assay are stamped out. The plates are bar coded and stored at −20 C until used for the assay.
For a particular assay day, the plates are thawed and a robotic liquid handler is used to dilute the test compound into the liquid fly food and dispense the mixture into the assay vials. For Huntington Disease (HD) models, eight replicates per single treatment (one compound, one concentration) are dispensed. Fresh test compound treated media is made daily during an assay.
On the day the assay flies eclose (emerge from […]; assay Day 0) they are transferred to the test compound treated vials. On assay Day 1, the flies are transferred onto clean test compound treated vials one hour before assay time. They are then placed in the assay machine to acclimate to the appropriate climate conditions.
The assay machine is an environmentally-enclosed and controlled robot that can maintain user-set temperature and humidity. The machine can hold up to sixteen 96-vial racks in four quadrants, for a total of 1536 vials. There are four camera stations, which hold four vials each and a CCD camera for movie capture. […]

Compound: O=C(NO)c1cnc(N2CC3CC2CN3c2cccc(C(F)(F)F)c2)nc1 (stereo not shown)
- Speed 1 to 7 (concentration) 30 uM: 0.02
- Speed 1 to 7 (concentration) 100 uM: 0.48
- Speed 1 to 7 (concentration) 300 uM: 0.506
- Speed 8 to 10 (concentration) 30 uM: −0.14
- Speed 8 to 10 (concentration) 100 uM: 0.3
- Speed 8 to 10 (concentration) 300 uM: −0.112

Compound: O=C(NO)c1cnc(N2CC3CC2CN3c2cccc(OC(F)(F)F)c2)nc1 (stereo not shown)
- Speed 1 to 7 (concentration) 30 uM: 0.05
- Speed 1 to 7 (concentration) 100 uM: −0.01
- Speed 1 to 7 (concentration) 300 uM: 0.68
- Speed 8 to 10 (concentration) 30 uM: 0.15
- Speed 8 to 10 (concentration) 100 uM: 0.16
- Speed 8 to 10 (concentration) 300 uM: 0.35

Compound: O=C(NO)c1cnc(N2CC3CC2CN3c2ccc3c(c2)OC(F)(F)O3)nc1 (stereo not shown)
- Speed 1 to 7 (concentration) 30 uM: 0.28
- Speed 1 to 7 (concentration) 100 uM: 0.64
- Speed 1 to 7 (concentration) 300 uM: 0.66
- Speed 8 to 10 (concentration) 30 uM: 0.22
- Speed 8 to 10 (concentration) 100 uM: 0.46
- Speed 8 to 10 (concentration) 300 uM: 0.58

Compound: O=C(NO)c1cnc(N2CC3CC2CN3c2cccc(SC(F)(F)F)c2)nc1 (stereo not shown)
- Speed 1 to 7 (concentration) 30 uM: 0.63
- Speed 1 to 7 (concentration) 100 uM: 0.38
- Speed 1 to 7 (concentration) 300 uM: 0.03
- Speed 8 to 10 (concentration) 30 uM: 0.28
- Speed 8 to 10 (concentration) 100 uM: 0.02
- Speed 8 to 10 (concentration) 300 uM: −0.29

Compound: O=C(NO)c1cnc(N2CC3CC2CN3c2cc(C(F)(F)F)ccn2)nc1 (stereo not shown)
- Speed 1 to 7 (concentration) 30 uM: 0.468
- Speed 1 to 7 (concentration) 100 uM: 0.82
- Speed 1 to 7 (concentration) 300 uM: 0.3
- Speed 8 to 10 (concentration) 30 uM: 0.087
- Speed 8 to 10 (concentration) 100 uM: 0.82
- Speed 8 to 10 (concentration) 300 uM: 0.54

Compound: O=C(NO)c1cnc(N2CC3CC2CN3c2cccc(C(F)(F)F)n2)nc1 (stereo not shown)
- Speed 1 to 7 (concentration) 30 uM: 0.781
- Speed 1 to 7 (concentration) 100 uM: 0.549
- Speed 1 to 7 (concentration) 300 uM: 0.411
- Speed 8 to 10 (concentration) 30 uM: 0.291
- Speed 8 to 10 (concentration) 100 uM: 0.376
- Speed 8 to 10 (concentration) 300 uM: 0.471

Compound: O=C(NO)c1cnc(N2CC3CC2CN3c2cccc3nonc23)nc1 (stereo not shown)
- Speed 1 to 7 (concentration) 100 uM: 0.84
- Speed 1 to 7 (concentration) 300 uM: 0.68
- Speed 8 to 10 (concentration) 100 uM: 0.26
- Speed 8 to 10 (concentration) 300 uM: 0.5

Compound: Cc1ccc(N2CC3CC2CN3c2ncc(C(=O)NO)cn2)cc1 (stereo not shown)
- Speed 1 to 7 (concentration) 30 uM: −0.007
- Speed 1 to 7 (concentration) 100 uM: 0.046
- Speed 1 to 7 (concentration) 300 uM: 0.829
- Speed 8 to 10 (concentration) 30 uM: −0.134
- Speed 8 to 10 (concentration) 100 uM: −0.369
- Speed 8 to 10 (concentration) 300 uM: −0.107

Compound: CC(C)OC(=O)N1CC2CC1CN2c1ncc(C(=O)NO)cn1 (stereo not shown)
- Speed 1 to 7 (concentration) 30 uM: 0.495
- Speed 1 to 7 (concentration) 100 uM: 0.33
- Speed 1 to 7 (concentration) 300 uM: −0.469
- Speed 8 to 10 (concentration) 30 uM: 0.338
- Speed 8 to 10 (concentration) 100 uM: 0.368
- Speed 8 to 10 (concentration) 300 uM: 0.512

Compound: Cc1cccc(N2CC3CC2CN3c2ncc(C(=O)NO)cn2)c1 (stereo not shown)
- Speed 1 to 7 (concentration) 30 uM: 0.493
- Speed 1 to 7 (concentration) 100 uM: 0.588
- Speed 1 to 7 (concentration) 300 uM: 0.412
- Speed 8 to 10 (concentration) 30 uM: 0.036
- Speed 8 to 10 (concentration) 100 uM: 0.359
- Speed 8 to 10 (concentration) 300 uM: 0.439

Compound: O=C(NO)c1ccc(C2=Nc3ccccc3Oc3ccc(F)cc32)cc1 [drawing 821]
- Speed 1 to 7 (concentration) 30 uM: 0.118
- Speed 1 to 7 (concentration) 100 uM: −0.004
- Speed 1 to 7 (concentration) 300 uM: 0.444
- Speed 8 to 10 (concentration) 30 uM: −0.108
- Speed 8 to 10 (concentration) 100 uM: 0.139
- Speed 8 to 10 (concentration) 300 uM: 0.47
